Source: ChEMBL document CHEMBL1938342 (J Med Chem, 2011)
The source made the active and inactive calls. No cut-off for these calls is given here.

Legend:
Carbonic anhydrase 9 = Carbonic anhydrase 9 (Homo sapiens, UniProt Q16790); test: Inhibition of human recombinant CA9 after 6 hrs by stopped flow CO2 hydration assay
4T1 = test: Anticancer activity against mouse 4T1 cells expressing CA9 xenografted in BALB/c mouse assessed as tumor growth inhibition at 30 mg/kg, iv administered on days 11,13,16 and 19
Carbonic anhydrase 1 = Carbonic anhydrase 1 (Homo sapiens, UniProt P00915); test: Inhibition of human full-length cytosolic CA1 after 6 hrs by stopped flow CO2 hydration assay
Carbonic anhydrase 12 = Carbonic anhydrase 12 (Homo sapiens, UniProt O43570); test: Inhibition of human recombinant CA12 after 6 hrs by stopped flow CO2 hydration assay
Mus musculus [1] = test: Toxicity in mouse 4T1 cells expressing […] xenografted BALB/c mouse assessed as mortality at 30 mg/kg, iv administered on days 11,13,16 and 19; assay type: organism-based; parameters: dose 30 mg/kg, route intravenous; settings: in vivo
Carbonic anhydrase 2 = Carbonic anhydrase 2 (Homo sapiens, UniProt P00918); test: Inhibition of human full-length cytosolic CA2 after 6 hrs by stopped flow CO2 hydration assay
Mus musculus [2] = test: Toxicity in mouse 4T1 cells expressing CA9 xenografted BALB/c mouse assessed as weight loss at 30 mg/kg, iv administered on days 11,13,16 and 19; settings: in vivo

Carbonic anhydrase 12, sequence (O43570 whole entry): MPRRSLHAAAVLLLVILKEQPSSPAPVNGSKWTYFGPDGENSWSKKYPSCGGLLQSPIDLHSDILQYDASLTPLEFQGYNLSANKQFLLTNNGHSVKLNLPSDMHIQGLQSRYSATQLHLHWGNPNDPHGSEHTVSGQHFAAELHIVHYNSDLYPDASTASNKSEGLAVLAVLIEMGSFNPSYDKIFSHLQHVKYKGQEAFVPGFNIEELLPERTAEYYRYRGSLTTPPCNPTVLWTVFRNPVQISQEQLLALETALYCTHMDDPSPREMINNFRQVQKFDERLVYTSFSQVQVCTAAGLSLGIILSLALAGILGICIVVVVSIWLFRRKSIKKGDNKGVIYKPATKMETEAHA
Carbonic anhydrase 1, sequence (P00915 whole entry): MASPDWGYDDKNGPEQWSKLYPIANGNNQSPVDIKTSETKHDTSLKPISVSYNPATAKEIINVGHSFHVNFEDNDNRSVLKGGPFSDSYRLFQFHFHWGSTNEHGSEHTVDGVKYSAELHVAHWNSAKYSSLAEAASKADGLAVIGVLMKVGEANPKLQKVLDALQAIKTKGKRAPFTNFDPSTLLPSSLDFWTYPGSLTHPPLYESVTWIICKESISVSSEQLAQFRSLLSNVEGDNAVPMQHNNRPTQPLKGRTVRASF

| SMILES | Ki (Carbonic anhydrase 9) [nM] | growth inhibition (GI) (4T1) | Ki (Carbonic anhydrase 1) [nM] | Ki (Carbonic anhydrase 12) [nM] | Activity (Mus musculus [1]) | Ki (Carbonic anhydrase 2) [nM] | Activity (Mus musculus [2]) |
| --- | --- | --- | --- | --- | --- | --- | --- |
| Cc1cc(=O)oc2cc(O[C@H]3O[C@H](CO)[C@@H](O)[C@H](O)[C@@H]3O)ccc12 | 9.2 | Active | > 100000 | 43 | Non-toxic | > 100000 | Non-toxic |
| Cc1cc(=O)oc2cc(O[C@@H]3O[C@H](CO)[C@H](O)[C@H](O)[C@H]3O)ccc12 | 93 | – | 590 | 8.5 | – | 77000 | – |
| Cc1cc(=O)oc2cc(O[C@@H]3O[C@H](CO[C@H]4O[C@H](CO)[C@H](O)[C@H](O)[C@H]4O)[C@@H](O)[C@H](O)[C@H]3O)ccc12 | 820 | – | 880 | 101 | – | 590 | – |
| Cc1cc(=O)oc2cc(O[C@@H]3O[C@H](CO)[C@@H](O)[C@H](O)[C@H]3O)ccc12 | 370 | – | 1000 | 54 | – | > 100000 | – |
| Cc1cc(=O)oc2cc(O[C@@H]3O[C@@H](C)[C@H](O)[C@@H](O)[C@H]3O)ccc12 | 201 | – | > 100000 | 184 | – | > 100000 | – |
| Cc1cc(=O)oc2cc(O)ccc12 [HYMECROMONE] | 560 | – | > 100000 | 8100 | – | > 100000 | – |
